Experimental data reported in PMC13308190, “Endothelial progenitor cell susceptibility to DNA damaging and DDR-modulating compounds determines endothelial differentiation accuracy” (Stem Cell Research & Therapy, 2026).

What was measured:
Type in all cases: cell-based, mouse
mESC = experiment: EdU incorporation (S-phase activity); conditions: mESC 24 h
[1] = system: EC d4 (endothelial progenitor cells); experiment: RT-qPCR mRNA expression; conditions: for Flk1 mRNA / Nanog mRNA / Oct4 mRNA / Pecam1 mRNA / Tie1 mRNA / VE-cad mRNA: analysed day 6, Fig 1C; for Ccl2 mRNA / Icam-1 mRNA / Vcam-1 mRNA / iNos mRNA / eNos mRNA: Fig 8D; for Gpx4 mRNA / Slc7a11 mRNA: Fig 6F
Protocol: Total RNA was purified using the RNeasy Mini Kit (Qiagen, Hilden, Germany). Reverse transcriptase (RT) reaction was performed with the HighCapacity cDNA Reverse Transcription Kit (Applied Biosystems, Darmstadt, Germany) using 900–2000 ng of RNA. Quantitative RT-qPCR analysis was performed using following conditions: (1) 95 °C–10 min; (2) 45 amplification cycles with 95 °C–15 s, 55 °C–15 s, and 72 °C–17 s; (3) 95 °C–1 min, 55 °C–1 min, 65 °C–5 s. If not stated otherwise, analyses were performed in technical triplicates using pooled samples from two independent experiments (each performed with biological duplicates) by use of a CFX96 cycler (BioRad) and the SensiMix SYBR Kit (Bioline, London, UK). The primers used for mRNA expression analyses are listed in Supplementary Table 1. To ensure the specificity of the amplification product, melting curves were recorded at the end of the run. mRNA expression levels were normalized to β-Actin and Gapdh. Relative mRNA expression in mESC or corresponding untreated controls was set to 1.0. Only changes in gene expression of ≤ 0.5- and ≥ 2-fold were considered as biologically relevant.
(§1) To monitor prototypical functions of endothelial cells, the uptake of fluorescent 1,1-dioctadecyl-3,3,3,3-tetra-methylindocarbocyanine-labeled acetylated LDL (Dil-acLDL) was examined. Briefly, cells were incubated with Dil-acLDL (10 µg/ml, 4 h, 37 °C). After fixation (3.7% cold formaldehyde/PBS (15 min, RT) nuclei were counterstained with DAPI. The uptake of DiI-acLDL was analyzed by fluorescence microscopy (Olympus BX43, 20x objective). Additionally, the response of differentiated EC to inflammatory cytokines was measured. After treatment with a pro-inflammatory cytokine mixture (TNFα/IL-1β, 10 ng/mL) for 1 h, mRNA expression of activated EC markers E-selectin, Icam-1, Vcam-1, Ccl2, eNos, iNos was analyzed (RT-qPCR).

EC d4 [2] = experiment: Dil-acLDL uptake; conditions: EC d4 treated 48 h
Protocol: as §1

EC d6 = experiment: Beta-galactosidase staining (senescence); conditions: EC d6 24 h + 24 h post incubation
Protocol: (§2) Beta-galactosidase activity was analyzed using the Cellular Senescence Assay Kit (Cell Biolabs, Inc., San Diego, CA, USA) according to the manufacturer’s instructions. After treatment and/or post-incubation period, the cells were fixed and stained (overnight, 37 °C). For control, untreated cells were incubated with working solution containing citrate-Na2HPO4 buffer at pH 4. The cells were analyzed by light microscopy (Axiovert 40 C, Carl Zeiss AG, 20x objective) and the fraction of beta-galactosidase positive (blue) cells was calculated (5 images per sample).

EC d4 [3] = experiment: Beta-galactosidase staining (senescence); conditions: EC d4 48 h
Protocol: as §2

[4] = EC d4 + 0.005 µM 48 h, analysed in EC d6
[5] = EC d4 + 0.005 µM 48 h, then + I/T (IL-1β/TNFα 10 ng/ml, 1 h)
[6] = EC d4 + 0.05 µM 48 h, analysed in EC d6
[7] = EC d4 + 0.05 µM 48 h, then + I/T (IL-1β/TNFα 10 ng/ml, 1 h)

## COc1cccc2c1C(=O)c1c(O)c3c(c(O)c1C2=O)C[C@@](O)(C(=O)CO)C[C@@H]3O[C@H]1C[C@H](N)[C@H](O)[C@H](C)O1 [Dox, doxorubicin]
mESC
  number of EdU-positive cells: significant drop
[1]; EC d4 + 0.005 µM 48 h
  Flk1 mRNA: 18.23 Fold of mESC
  Nanog mRNA: 0.03 Fold of mESC
  Oct4 mRNA: 0.02 Fold of mESC
  Pecam1 mRNA: 0.78 Fold of mESC
  Tie1 mRNA: 90.91 Fold of mESC
  VE-cad mRNA: 653.73 Fold of mESC
  Gpx4 mRNA: 1.07 Fold of untreated control
  Slc7a11 mRNA: 1.71 Fold of untreated control
[1]; [4]
  Ccl2 mRNA: 2.40 Fold of untreated control
  Icam-1 mRNA: 3.06 Fold of untreated control
  Vcam-1 mRNA: 0.44 Fold of untreated control
  iNos mRNA: 4.75 Fold of untreated control
[1]; [5]
  Ccl2 mRNA: 242.22 Fold of untreated control
  Icam-1 mRNA: 14.94 Fold of untreated control
  Vcam-1 mRNA: 1.13 Fold of untreated control
  eNos mRNA: 157.09 Fold of untreated control
  iNos mRNA: 4.95 Fold of untreated control
[1]; EC d4 + 0.005 µM 48 h, Fig 2D
  Atp7a mRNA: 1.11 Fold of control
  Ctr2 mRNA: 1.25 Fold of control
  Mdr1 mRNA: 1.46 Fold of control
  Mrp1 mRNA: 1.32 Fold of control
  Oct2 mRNA: 0.33 Fold of control
[1]; EC d4 + 0.005 µM 48 h, Fig 7B
  Cdkn1a mRNA: 1.42 Fold of untreated control
  Cdkn2a mRNA: 1.12 Fold of untreated control
  Glb1 mRNA: 0.97 Fold of untreated control
  Il6 mRNA: 0.95 Fold of untreated control
  Il8 mRNA: 1.26 Fold of untreated control
  Tp53 mRNA: 0.98 Fold of untreated control
[1]; EC d4 + 0.05 µM 48 h
  Flk1 mRNA: 26.95 Fold of mESC
  Nanog mRNA: 0.02 Fold of mESC
  Oct4 mRNA: 0.02 Fold of mESC
  Pecam1 mRNA: 1.42 Fold of mESC
  Tie1 mRNA: 146.88 Fold of mESC
  VE-cad mRNA: 1297.80 Fold of mESC
  Gpx4 mRNA: 1.35 Fold of untreated control
  Slc7a11 mRNA: 3.43 Fold of untreated control
[1]; [6]
  Ccl2 mRNA: 23.54 Fold of untreated control
  Icam-1 mRNA: 53.37 Fold of untreated control
  Vcam-1 mRNA: 0.085 Fold of untreated control
  eNos mRNA: 239.30 Fold of untreated control
  iNos mRNA: 3.20 Fold of untreated control
[1]; [7]
  Ccl2 mRNA: 2314.32 Fold of untreated control
  Icam-1 mRNA: 154.74 Fold of untreated control
  Vcam-1 mRNA: 0.39 Fold of untreated control
  eNos mRNA: 234.32 Fold of untreated control
  iNos mRNA: 3.41 Fold of untreated control
[1]; EC d4 + 0.05 µM 48 h, Fig 2D
  Atp7a mRNA: 1.81 Fold of control
  Atp7b mRNA: 0.54 Fold of control
  Ctr2 mRNA: 1.38 Fold of control
  Mdr1 mRNA: 105.13 Fold of control
  Mrp1 mRNA: 1.43 Fold of control
  Oct2 mRNA: 0.53 Fold of control
[1]; EC d4 + 0.05 µM 48 h, Fig 5C
  Brca1 mRNA: 0.25 Fold of mESC
  Chk1 mRNA: 0.34 Fold of mESC
  Rad51 mRNA: 0.27 Fold of mESC
[1]; EC d4 + 0.05 µM 48 h, Fig 6D
  Pgc1a mRNA: 24.33 Fold of untreated control
[1]; EC d4 + 0.05 µM 48 h, Fig 7B
  Cdkn1a mRNA: 4.89 Fold of untreated control
  Cdkn2a mRNA: 3.09 Fold of untreated control
  Glb1 mRNA: 1.54 Fold of untreated control
  Il6 mRNA: 1.91 Fold of untreated control
  Il8 mRNA: 25.17 Fold of untreated control
[1]; EC d4 + 0.05 µM 48 h, Fig 8C
  Cldn5 mRNA: 1.35 Fold of EC d4 or d6
  Ocln mRNA: 1.78 Fold of EC d4 or d6
  Tjp1 mRNA: 2.10 Fold of EC d4 or d6
[1]; EC d4 + 0.05 µM 48 h, Fig 8F
  Ldlr mRNA: 0.45 Fold of untreated control
EC d4 [2]
  LDL uptake in EC d6 progeny of treated EC d4: noticably reduced LDL uptake
EC d6
  percentage of beta-Gal-positive cells: increase
EC d4 [3]
  percentage of beta-Gal-positive cells: increase
